Experimental data published in patent publication US9133228B2, “Guanidinyl-substituted polyamides useful for treating human papilloma virus” (Nanovir, LLC, priority 2011, dated 2015).

What was measured:
Type in all cases: cell-based, Human papilloma virus
HPV16 = experiment: Inhibition of viral replication in cells that maintain HPV16 DNA, viral DNA quantified by real-time PCR; settings: cells maintaining HPV16 cultured 72 hours with polyamide; vs DMSO control; highest dose tested 10 μM
Source text: (§1) Table 1a lists a number of exemplary polyamides synthesized in accordance with the present invention. The HPLC/MW values given in Table 1b were obtained using low resolution high pressure liquid chromatography/mass spectrometry (LR HPLC/MS), which provides moderate precision masses of single isotopomers rather than average molecular weights or exact masses. Table 2 presents a summary of measured IC50 values of certain of these polyamides against HPV16, HPV18 and HPV31. The IC50 is the concentration of compound required for 50% inhibition of viral replication in vitro. The polyamides were tested in cells that maintain HPV16, HPV18 or HPV31 DNA. Cells maintaining the selected HPV were cultured for 72 hours in the presence of the polyamide. Viral DNA was then quantified using real-time PCR and compared to vehicle (DMSO)-treated control cultures. […] Table 3 presents a summary of measured IC50 and IC90 values of certain of these polyamides against HPV16, HPV18 and HPV31.

HPV18 = experiment: Inhibition of viral replication in cells that maintain HPV18 DNA, viral DNA quantified by real-time PCR; settings: cells maintaining HPV18 cultured 72 hours with polyamide; vs DMSO control; highest dose tested 10 μM
Source text: as §1

HPV31 = experiment: Inhibition of viral replication in cells that maintain HPV31 DNA, viral DNA quantified by real-time PCR; settings: cells maintaining HPV31 cultured 72 hours with polyamide; vs DMSO control; highest dose tested 10 μM
Source text: as §1

Row | IC50 (HPV16) | IC50 (HPV18) | IC50 (HPV31) | Compound
1 | 32 nM | 27 nM | 35 nM | CN(CCCN)CCCNC(=O)CCNC(=O)c1cc(NC(=O)c2cc(NC(=O)c3cc(NC(=O)CCNC(=O)c4cc(NC(=O)c5cc(NC(=O)c6cc(NC(=O)CCNC(=O)c7cc(NC(=O)c8cc(NC(=O)CCCNC(=O)c9cc(NC(=O)c%10cc(NC(=O)CCNC(=O)c%11nc(NC(=O)c%12cc(NC(=O)c%13cc(NC(=O)CCNC(=O)c%14cc(N=C(N(C)C)N(C)C)cn%14C)cn%13C)cn%12C)cn%11C)cn%10C)cn9C)cn8C)cn7C)cn6C)cn5C)cn4C)cn3C)cn2C)cn1C [NV1078, TMG-PyβPyPyImβPyPy-γ-PyPyβPyPyPyβPyPyPyβ-Ta•4TFA]
2 | 42 nM | 17 nM | 37 nM | CN(C)CCCNC(=O)CCNC(=O)c1cc(NC(=O)CCNC(=O)c2cc(NC(=O)c3cc(NC(=O)c4cc(NC(=O)CCNC(=O)c5cc(NC(=O)c6cc(NC(=O)c7cc(NC(=O)[C@@H](CCNC(=O)c8cc(NC(=O)CCNC(=O)c9cc(NC(=O)c%10cc(NC(=O)CCNC(=O)c%11cc(NC(=O)c%12cc(NC(=O)c%13cc(N=C(N(C)C)N(C)C)cn%13C)cn%12C)cn%11C)cn%10C)cn9C)cn8C)NC(=O)NCCCN(C)C)cn7C)cn6C)cn5C)cn4C)cn3C)cn2C)cn1C [NV1079, TMG-PyPyPyβPyPyβPy-γNHR″-PyPyPyβPyPyPyβPyβ-Dp•3TFA]
3 | 53 nM | 35 nM | 47 nM | CN(C)CCCNC(=O)CCNC(=O)c1cc(NC(=O)c2cc(NC(=O)c3cc(NC(=O)CCNC(=O)c4cc(NC(=O)c5cc(NC(=O)c6cc(NC(=O)CCNC(=O)c7cc(NC(=O)c8cc(NC(=O)CCCNC(=O)c9cc(NC(=O)c%10cc(NC(=O)CCNC(=O)c%11nc(NC(=O)c%12cc(NC(=O)c%13cc(NC(=O)CCNC(=O)c%14cc(N=C(N(C)C)N(C)C)cn%14C)cn%13C)cn%12C)cn%11C)cn%10C)cn9C)cn8C)cn7C)cn6C)cn5C)cn4C)cn3C)cn2C)cn1C [NV1080, TMG-PyβPyPyImβPyPy-γ-PyPyβPyPyPyβPyPyPyβ-Dp•3TFA]
4 | > 10000 nM | > 10000 nM | > 10000 nM | CN(C)CCCNC(=O)CCNC(=O)c1cc(NC(=O)c2cc(NC(=O)c3cc(NC(=O)c4cc(NC(=O)CCNC(=O)c5cc(NC(=O)c6cc(NC(=O)CCCNC(=O)c7cc(NC(=O)c8cc(NC(=O)c9cc(NC(=O)CCNC(=O)c%10cc(N=C(N(C)C)N(C)C)cn%10C)cn9C)cn8C)cn7C)cn6C)cn5C)cn4C)cn3C)cn2C)cn1C [NV1081, TMG-PyβPyPyPy-γ-PyPyβPyPyPyPyβ-Dp•2TFA]
5 | > 10000 nM | > 10000 nM | > 10000 nM | CN(CCCN)CCCNC(=O)CCNC(=O)c1cc(NC(=O)c2cc(NC(=O)c3cc(NC(=O)c4cc(NC(=O)CCNC(=O)c5cc(NC(=O)c6cc(NC(=O)CCCNC(=O)c7cc(NC(=O)c8cc(NC(=O)c9cc(NC(=O)CCNC(=O)c%10cc(N=C(N(C)C)N(C)C)cn%10C)cn9C)cn8C)cn7C)cn6C)cn5C)cn4C)cn3C)cn2C)cn1C [NV1082, TMG-PyβPyPyPy-γ-PyPyβPyPyPyPyβ-Ta•3TFA]
6 | 2410 nM | 929 nM | 3080 nM | CN(C)CCCNC(=O)CCNC(=O)c1cc(NC(=O)c2cc(NC(=O)c3cc(NC(=O)c4cc(NC(=O)CCNC(=O)c5cc(NC(=O)c6cc(NC(=O)CCCNC(=O)c7cc(NC(=O)c8cc(NC(=O)c9cc(NC(=O)CCNC(=O)c%10cc(NC(=O)c%11cc(N=C(N(C)C)N(C)C)cn%11C)cn%10C)cn9C)cn8C)cn7C)cn6C)cn5C)cn4C)cn3C)cn2C)cn1C [NV1083, TMG-PyPyβPyPyPy-γ-PyPyβPyPyPyPyβ-Dp•2TFA]
7 | 1910 nM | 1040 nM | 7320 nM | CN(CCCN)CCCNC(=O)CCNC(=O)c1cc(NC(=O)c2cc(NC(=O)c3cc(NC(=O)c4cc(NC(=O)CCNC(=O)c5cc(NC(=O)c6cc(NC(=O)CCCNC(=O)c7cc(NC(=O)c8cc(NC(=O)c9cc(NC(=O)CCNC(=O)c%10cc(NC(=O)c%11cc(N=C(N(C)C)N(C)C)cn%11C)cn%10C)cn9C)cn8C)cn7C)cn6C)cn5C)cn4C)cn3C)cn2C)cn1C [NV1084, TMG-PyPyβPyPyPy-γ-PyPyβPyPyPyPyβ-Ta•3TFA]
8 | 29 nM | 41 nM | 32 nM | CN(CCCN)CCCNC(=O)CCNC(=O)c1cc(NC(=O)c2cc(NC(=O)c3cc(NC(=O)CCNC(=O)c4cc(NC(=O)c5cc(NC(=O)c6cc(NC(=O)CCNC(=O)c7cc(NC(=O)c8cc(NC(=O)CCCNC(=O)c9cc(NC(=O)c%10cc(NC(=O)CCNC(=O)c%11nc(NC(=O)c%12cc(NC(=O)c%13cc(NC(=O)CCNC(=O)c%14cc(NC(=O)c%15cc(N=C(N(C)C)N(C)C)cn%15C)cn%14C)cn%13C)cn%12C)cn%11C)cn%10C)cn9C)cn8C)cn7C)cn6C)cn5C)cn4C)cn3C)cn2C)cn1C [NV1085, TMG-PyPyβPyPyImβPyPy-γ-PyPyβPyPyPyβPyPyPyβ-Ta•4TFA]

Continued, compound first:

Row | Compound | IC50 (HPV16) | IC50 (HPV18) | IC50 (HPV31)
9 | CN(CCCN)CCCNC(=O)c1cc(NC(=O)c2cc(NC(=O)CCNC(=O)c3cc(NC(=O)c4cc(NC(=O)c5cc(NC(=O)CCNC(=O)c6cc(NC(=O)c7cc(NC(=O)CCNC(=O)c8cc(NC(=O)[C@H](N)CCNC(=O)c9nc(NC(=O)c%10cc(NC(=O)CCNC(=O)c%11cc(NC(=O)c%12cc(NC(=O)CCNC(=O)c%13cc(NC(=O)c%14cc(N=C(N(C)C)N(C)C)cn%14C)cn%13C)cn%12C)cn%11C)cn%10C)cn9C)cn8C)cn7C)cn6C)cn5C)cn4C)cn3C)cn2C)cn1C [NV1071, TMG-PyPyβPyPyβPyIm-γNH2-PyβPyPyβPyPyPyβPyPy-Ta•5TFA] | 255 nM | 93 nM | 95 nM
10 | CN(CCCN)CCCNC(=O)CCNC(=O)c1cc(NC(=O)CCNC(=O)c2cc(NC(=O)c3cc(NC(=O)c4cc(NC(=O)CCNC(=O)c5cc(NC(=O)c6cc(NC(=O)CCNC(=O)c7cc(NC(=O)[C@@H](CCNC(=O)c8nc(NC(=O)c9cc(NC(=O)CCNC(=O)c%10cc(NC(=O)c%11cc(NC(=O)CCNC(=O)c%12cc(NC(=O)c%13cc(NC(=O)c%14cc(N=C(N(C)C)N(C)C)cn%14C)cn%13C)cn%12C)cn%11C)cn%10C)cn9C)cn8C)NC(=O)NCCCN(C)CCCN)cn7C)cn6C)cn5C)cn4C)cn3C)cn2C)cn1C [NV1072, TMG-PyPyPyβPyPyβPyIm-γNHR′-PyβPyPyβPyPyPyβPyβ-Ta•6TFA] | 109 nM | 216 nM | 96 nM
11 | CN(CCCN)CCCNC(=O)CCNC(=O)c1cc(NC(=O)CCNC(=O)c2cc(NC(=O)c3cc(NC(=O)c4cc(NC(=O)CCNC(=O)c5cc(NC(=O)c6cc(NC(=O)CCNC(=O)c7cc(NC(=O)[C@H](N)CCNC(=O)c8nc(NC(=O)c9cc(NC(=O)CCNC(=O)c%10cc(NC(=O)c%11cc(NC(=O)CCNC(=O)c%12cc(NC(=O)c%13cc(NC(=O)c%14cc(N=C(N(C)C)N(C)C)cn%14C)cn%13C)cn%12C)cn%11C)cn%10C)cn9C)cn8C)cn7C)cn6C)cn5C)cn4C)cn3C)cn2C)cn1C [NV1073, TMG-PyPyPyβPyPyβPyIm-γNH2-PyβPyPyβPyPyPyβPyβ-Ta•5TFA] | 267 nM | 405 nM | 220 nM
12 | CN(CCCN)CCCNC(=O)CCNC(=O)c1cc(NC(=O)CCNC(=O)c2cc(NC(=O)c3cc(NC(=O)c4cc(NC(=O)CCNC(=O)c5cc(NC(=O)c6cc(NC(=O)c7cc(NC(=O)[C@@H](CCNC(=O)c8cc(NC(=O)CCNC(=O)c9cc(NC(=O)c%10cc(NC(=O)CCNC(=O)c%11cc(NC(=O)c%12cc(NC(=O)c%13cc(N=C(N(C)C)N(C)C)cn%13C)cn%12C)cn%11C)cn%10C)cn9C)cn8C)NC(=O)NCCCN(C)CCCN)cn7C)cn6C)cn5C)cn4C)cn3C)cn2C)cn1C [NV1074, TMG-PyPyPyβPyPyβPy-γNHR′-PyPyPyβPyPyPyβPyβ-Ta•5TFA] | 178 nM | 41 nM | 52 nM
13 | CN(C)CCCNC(=O)CCNC(=O)c1cc(NC(=O)CCNC(=O)c2cc(NC(=O)c3cc(NC(=O)c4cc(NC(=O)CCNC(=O)c5cc(NC(=O)c6cc(NC(=O)CCNC(=O)c7cc(NC(=O)[C@H](N)CCNC(=O)c8nc(NC(=O)c9cc(NC(=O)CCNC(=O)c%10cc(NC(=O)c%11cc(NC(=O)CCNC(=O)c%12cc(NC(=O)c%13cc(NC(=O)c%14cc(N=C(N(C)C)N(C)C)cn%14C)cn%13C)cn%12C)cn%11C)cn%10C)cn9C)cn8C)cn7C)cn6C)cn5C)cn4C)cn3C)cn2C)cn1C [NV1075, TMG-PyPyPyβPyPyβPyIm-γNH2-PyβPyPyβPyPyPyβPyβ-Dp•4TFA] | 124 nM | 49 nM | 56 nM
14 | CN(CCCN)CCCNC(=O)CCNC(=O)c1cc(NC(=O)CCNC(=O)c2cc(NC(=O)c3cc(NC(=O)c4cc(NC(=O)CCNC(=O)c5cc(NC(=O)c6cc(NC(=O)c7cc(NC(=O)[C@H](N)CCNC(=O)c8cc(NC(=O)CCNC(=O)c9cc(NC(=O)c%10cc(NC(=O)CCNC(=O)c%11cc(NC(=O)c%12cc(NC(=O)c%13cc(N=C(N(C)C)N(C)C)cn%13C)cn%12C)cn%11C)cn%10C)cn9C)cn8C)cn7C)cn6C)cn5C)cn4C)cn3C)cn2C)cn1C [NV1076, TMG-PyPyPyβPyPyβPy-γNH2-PyPyPyβPyPyPyβPyβ-Ta] | 67 nM | 48 nM | 104 nM
15 | CN(C)CCCNC(=O)CCNC(=O)c1cc(NC(=O)CCNC(=O)c2cc(NC(=O)c3cc(NC(=O)c4cc(NC(=O)CCNC(=O)c5cc(NC(=O)c6cc(NC(=O)c7cc(NC(=O)[C@H](N)CCNC(=O)c8cc(NC(=O)CCNC(=O)c9cc(NC(=O)c%10cc(NC(=O)CCNC(=O)c%11cc(NC(=O)c%12cc(NC(=O)c%13cc(N=C(N(C)C)N(C)C)cn%13C)cn%12C)cn%11C)cn%10C)cn9C)cn8C)cn7C)cn6C)cn5C)cn4C)cn3C)cn2C)cn1C [NV1077, TMG-PyPyPyβPyPyβPy-γNH2-PyPyPyβPyPyPyβPyβ-Dp] | 95 nM | 15 nM | 32 nM
